How the values were obtained:
[1] = Plasma versus brain concentration after subcutaneous administration in mice; settings: mouse, in vivo
Procedure: The concentration of selected compounds in plasma (FIG. 8A) versus concentration in brain (FIG. 8A) was assessed after administration in a mice. Briefly, mice are administered with selected compounds via subcutaneous route. Thirty minutes after the compound administration, plasma and brain samples are collected. Concentrations of the selected compounds in plasma and brains are determined by LC/MS/MS.

[2] = tested on: C57BI/6J female mice; test: 24 day administration, lung and heart weight and fibrosis; assay type: in vivo; settings: 10 mg/kg for 24 days
Procedure: C57BI/6J female mice were administered with isoproterenol, KSN01-01-15, or KSN01-01-18 at 10 mg/kg for 24 days. After 24 days of treatment, mice were sacrificed, and lung and heart weight were measured. Hearts were then fixed in 10% formalin, and stained with Masson trichrome for evaluation of fibrosis.

[3] = Body weight changes on chronic administration in mice; assay type: in vivo; settings: 10 mg/kg subcutaneous
Procedure: Transgenic mice expressing amyloid beta protein precursor (APP) and wild-type mice were chronically administered with KSN01-01-18 (10 mg/kg, subcutaneous). Changes on body weight were recorded. Effects of KSN01-01-18 on cognitive function were evaluated in Morris water maze (MWM). Briefly, In the MWM, a large water tank (178 cm in diameter) filled with water was used. A circular platform was placed about 1 cm below the water surface approximately 17 cm away from the wall in one 20 quadrant of the tank. Nontoxic tempera paints were used to make the water opaque. During the consecutive days of hidden platform training, mice were released from drop locations and given 60 sec to find the platform. Upon completion of the hidden platform training, the platform was removed and a 60-sec probe trial was conducted. Successful learning of MWM was determined by the gradual decrease in escape latency during the hidden platform training and discriminative quadrant exploration and latency to reach virtual platform during the probe trial.

[4] = tested on: Transgenic mice expressing amyloid beta protein precursor (APP); test: Morris water maze in transgenic mice expressing amyloid beta protein precursor (APP); assay type: in vivo; settings: 10 mg/kg subcutaneous, chronic
Procedure: Mice are tested in a large water tank (178 cm in diameter; 22.0±1.5° C.) with a submerged 17 cm diameter circular platform (˜1 cm below the water surface and ˜50 cm away from the wall). Non-toxic tempera paints (Elmers) are used to make the water opaque. Privacy blinds with four different visual cues surrounded the tank and are located ˜150 cm from the center of the tank. Testing is performed under dim white light (40 Lux at the water surface). Activity is monitored with Ethovision via an overhead video system. Mice complete 4-6 days of hidden platform training (60 seconds to locate the platform when released from a pseudorandomized drop location). […] Successful leaming of MWM is determined by reduced escape latency and discriminative quadrant exploration during the probe trial. […]
Transgenic mice expressing amyloid beta protein precursor (APP) and wild-type mice were chronically administered with KSN01-01-18 (10 mg/kg, subcutaneous). Changes on body weight were recorded. Effects of KSN01-01-18 on cognitive function were evaluated in Morris water maze (MWM). […] Successful learning of MWM was determined by the gradual decrease in escape latency during the hidden platform training and discriminative quadrant exploration and latency to reach virtual platform during the probe trial.

Row | SMILES | crossing the blood brain barrier [1] | fibrotic changes in heart and heart weight [2] | fibrotic changes in lung and lung weight [2] | morphological changes in heart [2] | general toxicity as measured by changes in body weight [3] | cognitive function in Morris water maze (time to find the virtual platform) [4]
1 | Cc1n[nH]c2cccc(OC[C@@H](O)CNCCNC(=O)N3CCOCC3)c12 [Compound 38] | not capable of crossing the blood brain barrier | – | – | – | – | –
2 | Cc1n[nH]c2cccc(OC[C@@H](O)CNCc3ccn(C)n3)c12 [Compound 92] | – | did not induce these changes | did not induce these changes | did not induce these changes | does not cause general toxicity | cognitive enhancing effects
